We go through 1 molecule from paper PMC5663395, “Chemical Validation of Methionyl-tRNA Synthetase as a Druggable Target in Leishmania donovani” (ACS Infectious Diseases, 2017).

Assay [1] has as its system protein synthesis in Leishmania tarentolae cell extract. Kind of assay: Leishmania tarentolae in vitro translation (eGFP expression in cell extract). As to conditions: L. tarentolae extract, read-out: EC50 inhibition of eGFP protein synthesis. In kind it is biochemical. On the procedure: Crystals of TbMetRS:Met were obtained by incubating TbMetRS with 10 mM methionine and 1 mM TCEP before crystallisation by sitting drop vapour diffusion against a reservoir solution containing 2.0-2.3 M Ammonium Sulphate, 0.2 M NaCl, 0.1 M Na Cacodylate pH 6.0-6.6. Single crystals grew after 3-4 days incubation at 18 °C. To obtain ternary TbMetRS:Met:Ligand complexes, TbMetRS:Met crystals were soaked for 10-30 seconds in a 10 μl drop consisting of 1 μl of ligand (20 mM in 20% DMSO), 4 μl reservoir solution and 5 μl glycerol. Crystals were flash frozen immediately in liquid nitrogen in preparation for data collection.
Diffraction data were measured at Diamond Light Source beamline I02. […]
Protein translation in a Leishmania cell extract was studied using a commercially available cell-free protein expression kit (Jena Bioscience). Reactions were carried out in black 384-well, small-volume plates (Greiner) in 10 µl reaction volumes containing 7 µl L. tarentolae cell extract, 1 µl eGFP DNA template and 2 µl nuclease free water (‘no DNA’ wells were included as negative controls). eGFP expression was monitored over time using a BMG PheraStar plate reader (Excitation 485 nm; […]
The effect of DDD806905 on mitochondrial protein synthesis was determined by BioDuro using the MitoBiogenesisTM In-Cell ELISA Kit (Abcam). […] In the assay the levels of SDH-A and COX-1 are measured in H9C2 cells. […]

Assay [2] relates to protein synthesis in human HeLa cell extract. The assay is described as follows: HeLa in vitro translation (GFP expression in cell extract). In kind it is biochemical. To be noted: 100 μM. The method, then: page 27: When test compounds were to be screened, the compound of interest (solubilised in 100% DMSO) was dispensed into assay plates using an Echo® 550 (Labcyte) before L. tarentolae extract and eGFP template DNA were added to assay wells as described above. The reaction was run at room temperature for 120 min before eGFP fluorescence intensity was measured. IC50 curve fitting was undertaken in GraFit version 6.0 (Erithacus Software) using a four-parameter logistic dose-response curve (equation 6), with s the slope. […] GFP expression was monitored over time using a BMG PheraStar plate reader (Excitation 485 nm; Emission 520 nm). When testing DDD806905 and the positive control compound cycloheximide, compounds (solubilised in 100% DMSO) were dispensed into assay plates using an Echo® 550 (Labcyte) before HeLa extract, accessory proteins, reaction mix and GFP template DNA were added to assay wells and GFP expression monitored as described above. Mitochondrial protein synthesis assay The effect of DDD806905 on mitochondrial protein synthesis was determined by BioDuro using the MitoBiogenesisTM In-Cell ELISA Kit (Abcam). […] In the assay the levels of SDH-A and COX-1 are measured in H9C2 cells. These are normalised to DMSO treated cells (vehicle) and then the ratio of normalised SDH-A over COX-1 is calculated. […]

Assay [3] deals with mitochondrial protein synthesis in H9C2 cells. Kind of assay: Mitochondrial protein synthesis assay (COX-1/SDH-A In-Cell ELISA). Type of assay: cell-based. As to conditions: COX-1/SDH-A ratio, average of three experiments.
In assay [4] the test system is Leishmania donovani liver parasite burden. Kind of assay: Mouse visceral leishmaniasis efficacy model. To be noted: 50 mg/kg oral twice daily for 10 days, 50 mg/kg.

pEC50, pIC50: −log10 of the molar value. “And” between values parts separate entries of the source, which are not always exact repeats. Identical values can stand only once. Like-named read-outs stand apart in the source and are kept apart here.

As for `Cl.Cl.O=c1nc(NCCCNCc2cc3c(Cl)cc(Cl)cc3[nH]2)[nH]c2ccccc12` [DDD806905, 2-((3-(((4,6-dichloro-1H-indol-2-yl)methyl)amino)propyl)amino)quinazolin-4(1H)-one dihydrochloride], the negative-log EC50 (pEC50) – broadly, −log10 of the EC50, conventionally taken in molar units – was 4.92 in assay [1] (additional 1.5 mM methionine) and 5.66 in assay [1] (no additional methionine). Moreover, in assay [2], the “inhibition of in vitro translation in HeLa cell extract” value is on record as “no inhibition”. For the same molecule, the pIC50 (in general, the IC50 on a negative log10 scale, so that one unit is a factor of ten) is 5.77 in assay [3] (H9C2 cells) and 5.77 in assay [3] (Rattus norvegicus, H9c2, H9C2 cells). For the same molecule, in assay [4], the “reduction (knock-down) of liver parasite burden (LDU) vs vehicle” value is 19% and 19.4%.
